Source: patent US9732075B2, “Benzimidazole-proline derivatives” (IDORSIA PHARMACEUTICALS LTD, priority 2012, dated 2017)

Legend:
human orexin-1 receptor = human orexin-1 receptor (Homo sapiens (Human), UniProt O43613); experiment: In vitro assay: intracellular calcium measurements (FLIPR), antagonistic activity; assay type: cell-based; conditions: CHO cells expressing human orexin-1 receptor, orexin-A agonist, geometric mean, read-out: IC50 Ox1
Method: (§1) In Vitro Assay: Intracellular Calcium Measurements:
(§2) Chinese hamster ovary (CHO) cells expressing the human orexin-1 receptor and the human orexin-2 receptor, respectively, are grown in culture medium (Ham F-12 with L-Glutamine) containing 300 μg/ml G418, 100 U/ml penicillin, 100 μg/ml streptomycin and 10% heat inactivated fetal calf serum (FCS). The cells are seeded at 20,000 cells/well into 384-well black clear bottom sterile plates (Greiner). The seeded plates are incubated overnight at 37° C. in 5% CO2.
(§3) Human orexin-A as an agonist is prepared as 1 mM stock solution in MeOH: water (1:1), diluted in HBSS containing 0.1% bovine serum albumin (BSA), NaHCO3: 0.375 g/l and 20 mM HEPES for use in the assay at a final concentration of 3 nM.
(§4) Antagonists are prepared as 10 mM stock solution in DMSO, then diluted in 384-well plates using DMSO followed by a transfer of the dilutions into in HBSS containing 0.1% bovine serum albumin (BSA), NaHCO3: 0.375 g/l and 20 mM HEPES. On the day of the assay, 50 μl of staining buffer (HBSS containing 1% FCS, 20 mM HEPES, NaHCO3: 0.375 g/l, 5 mM probenecid (Sigma) and […] of the fluorescent calcium indicator fluo-4 AM (1 mM stock solution in DMSO, containing 10% pluronic) is added to each well. The 384-well cell-plates are incubated for 50 min at 37° C. in 5% CO2 followed by equilibration at RT for 30 min before measurement.
(§5) Within the Fluorescent Imaging Plate Reader (FLIPR Tetra, Molecular Devices), antagonists are added to the plate in a volume of 10 μl/well, incubated for 120 min and finally 10 μl/well of agonist is added. Fluorescence is measured for each well at 1 second intervals, and the height of each fluorescence peak is compared to the height of the fluorescence peak induced by an approximate EC70 (for example 5 nM) of orexin-A with vehicle in place of antagonist. The IC50 value (the concentration of compound needed to inhibit 50% of the agonistic response) is determined and may be normalized using the obtained IC50 value of a on-plate reference compound. Optimized conditions are achieved by adjustment of pipetting speed and cell splitting regime. The calculated IC50 values may fluctuate depending on the daily cellular assay performance. Fluctuations of this kind are known to those skilled in the art. Average IC50 values from several measurements are given as geometric mean values.

human orexin-2 receptor = human orexin-2 receptor (Homo sapiens (Human), UniProt O43614); experiment: as above; assay type: cell-based; conditions: CHO cells expressing human orexin-2 receptor, orexin-A agonist, geometric mean, read-out: IC50 Ox2
Chain of human orexin-2 receptor (O43614 whole entry): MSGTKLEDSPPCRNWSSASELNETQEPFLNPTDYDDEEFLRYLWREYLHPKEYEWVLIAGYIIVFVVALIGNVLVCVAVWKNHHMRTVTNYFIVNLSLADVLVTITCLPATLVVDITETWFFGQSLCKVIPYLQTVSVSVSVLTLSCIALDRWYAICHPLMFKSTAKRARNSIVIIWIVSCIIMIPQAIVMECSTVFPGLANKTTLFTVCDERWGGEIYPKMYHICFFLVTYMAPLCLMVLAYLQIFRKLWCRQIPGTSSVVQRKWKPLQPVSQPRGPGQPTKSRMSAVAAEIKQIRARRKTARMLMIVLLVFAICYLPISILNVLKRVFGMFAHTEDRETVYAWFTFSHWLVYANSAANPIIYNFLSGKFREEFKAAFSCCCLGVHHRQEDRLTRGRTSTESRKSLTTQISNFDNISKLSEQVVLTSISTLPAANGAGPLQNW
Method: as §1, §2, §3, §4, §5

Chain of human orexin-1 receptor (O43613 whole entry): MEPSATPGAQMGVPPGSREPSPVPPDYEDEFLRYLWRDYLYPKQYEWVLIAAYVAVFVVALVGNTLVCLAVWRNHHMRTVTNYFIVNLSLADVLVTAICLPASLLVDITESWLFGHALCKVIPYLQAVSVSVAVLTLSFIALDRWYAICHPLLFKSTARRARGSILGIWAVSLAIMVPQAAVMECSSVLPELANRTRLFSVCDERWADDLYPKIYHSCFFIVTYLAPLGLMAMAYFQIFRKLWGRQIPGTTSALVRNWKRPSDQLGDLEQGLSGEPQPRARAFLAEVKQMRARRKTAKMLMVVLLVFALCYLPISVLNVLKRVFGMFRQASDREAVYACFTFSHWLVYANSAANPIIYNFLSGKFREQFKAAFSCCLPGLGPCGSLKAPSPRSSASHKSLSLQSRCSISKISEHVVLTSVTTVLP

| IC50 (human orexin-1 receptor) [nM] | IC50 (human orexin-2 receptor) [nM] | Compound |
| --- | --- | --- |
| 56 | 118 | COc1cccc(-c2nc(C)ncc2C(=O)N2CCC[C@H]2c2nc3cccc(SC)c3[nH]2)c1 [Ex. 1.86] |
| 4 | 215 | COc1ccc(-c2sc(C)nc2C(=O)N2CC[C@H](C)[C@H]2c2nc3c(C(F)(F)F)cccc3[nH]2)cc1 [Ex. 4.159] |
| 935 | 153 | COc1ccc2nc([C@@H]3CCCN3C(=O)c3nc(C)sc3-c3ccc(Br)cc3)[nH]c2c1 [Ex. 1.18] |
| 20 | 49 | COc1ccc(-c2cccc(C#N)c2)c(C(=O)N2CCC[C@@]2(C)c2nc3c(C)c(Cl)ccc3[nH]2)c1F [Ex. 5.307] |
| 70 | 9 | C=C1C[C@@H](c2nc3c(C)cccc3[nH]2)N(C(=O)c2nc(C)sc2-c2ccccc2)C1 [Ex. 6.40] |
| 83 | 3 | C=C1C[C@@H](c2nc3cc(SC)ccc3[nH]2)N(C(=O)c2cc(C)ccc2-n2nccn2)C1 [Ex. 6.60] |
| 15 | 78 | Cc1nc(C(=O)N2CCC[C@@]2(C)c2nc3c(F)c(F)ccc3[nH]2)c(-c2cccc(Cl)c2)s1 [Ex. 5.207] |
| 21 | 35 | CCn1c([C@]2(C)CCCN2C(=O)c2cc(C)ccc2-c2cccc(OC)c2)nc2cc(C)c(C)cc21 [Ex. 7.44] |
| 1 | 2 | CCn1c([C@]2(C)CCCN2C(=O)c2cc(C)ccc2-n2nccn2)nc2c(C)c(Cl)ccc21 [Ex. 7.21] |
| 49 | 75 | Cc1c(Cl)ccc2[nH]c([C@]3(C)CCCN3C(=O)c3ccccc3-n3cccn3)nc12 [Ex. 5.42] |
| 54 | 1000 | Cc1ccc(C(=O)N2CCC[C@@]2(C)c2nc3cc(OC(F)(F)F)ccc3[nH]2)c(-c2cccnc2)c1 [Ex. 5.241] |
| 241 | 30 | COc1cccc2nc([C@@H]3CCCN3C(=O)c3cc(C)ccc3-n3nccn3)[nH]c12 [Ex. 1.4] |
| 4 | 466 | Cc1c(Cl)ccc2[nH]c([C@]3(C)CCCN3C(=O)c3nc(-c4cc(F)ccc4F)sc3-c3ccc(F)cc3)nc12 [Ex. 5.261] |
| 7 | 43 | Cc1cc2nc([C@@H]3[C@@H](C)CCN3C(=O)c3ccccc3-n3nccn3)[nH]c2cc1C [Ex. 4.85] |
| 41 | 564 | CSc1cccc2nc([C@@H]3CCCN3C(=O)c3cnc(C)nc3-c3ccc(F)cc3)[nH]c12 [Ex. 1.80] |
| 12 | 132 | Cc1ccc(C(=O)N2CC[C@H](C)[C@H]2c2nc3c(C)c(Cl)ccc3[nH]2)c(-c2ncccn2)c1 [Ex. 4.174] |
| 3 | 14 | Cc1ccc(-n2cccn2)c(C(=O)N2CCC[C@@]2(C)c2nc3c(C)c(Cl)ccc3[nH]2)c1 [Ex. 5.43] |
| 12 | 25 | Cc1c(Cl)ccc2[nH]c([C@]3(C)CCCN3C(=O)c3c(F)cccc3-n3nccn3)nc12 [Ex. 5.48] |
| 17 | 2280 | COc1ccc2nc([C@@H]3[C@@H](C)CCN3C(=O)c3nc(C)sc3-c3cccc(Cl)c3)[nH]c2c1 [Ex. 4.26] |
| 737 | 121 | CSc1ccc2nc([C@@H]3CCCN3C(=O)c3cncnc3-c3ccc(Cl)c(Cl)c3)[nH]c2c1 [Ex. 1.52] |
| 2 | 2780 | Cc1nc(C(=O)N2CC[C@H](C)[C@H]2c2nc3cc(C(F)(F)F)ccc3[nH]2)c(-c2cccc(Cl)c2)s1 [Ex. 4.9] |
| 15 | 21 | COc1ccc(-c2ccccc2F)c(C(=O)N2CCC[C@@]2(C)c2nc3c(C)c(Cl)ccc3[nH]2)c1F [Ex. 5.298] |
| 5 | 12 | C=C1CC(c2nc3c(Br)cccc3[nH]2)N(C(=O)c2cc(C)sc2-c2ccc(C)c(C)c2)C1 (stereo not drawn) [Ex. 6.78] |
| 307 | 151 | C=C1C[C@@H](c2nc3cc(OC)ccc3[nH]2)N(C(=O)c2cnc(C)nc2-c2ccccc2)C1 [Ex. 6.16] |
| 1 | 1 | C=C1C[C@@H](c2nc3c(C)c(Cl)ccc3[nH]2)N(C(=O)c2nc(C)sc2-c2cccc(Cl)c2)C1 [Ex. 6.45] |

| IC50 (human orexin-1 receptor) [nM] | IC50 (human orexin-2 receptor) [nM] | Compound |
| --- | --- | --- |
| 28 | 20 | CO[C@H]1CN(C(=O)c2nc(C)sc2-c2ccccc2)C(C)(c2nc3c(C)cccc3[nH]2)C1 (stereo partly drawn) [Ex. 3.29] |
| 12 | 2 | C=C1C[C@@H](c2nc3c(C)c(Cl)ccc3[nH]2)N(C(=O)c2cc(C)ccc2-n2nccn2)C1 [Ex. 6.42] |
| 14 | 3 | C=C1C[C@@H](c2nc3ccc(Cl)c(C)c3[nH]2)N(C(=O)c2nc(C)sc2-c2ccc(Cl)cc2)C1 [Ex. 6.119] |
| 8 | 23 | C=C1CC(c2nc3c(OC)ccc(OC)c3[nH]2)N(C(=O)c2cc(C)sc2-c2ccc(C)c(C)c2)C1 (racemic) [Ex. 6.83] |
| 14 | 725 | Cc1nc(C(=O)N2CC[C@H](C)[C@H]2c2nc3c(Cl)cccc3[nH]2)c(-c2ccc(Cl)cc2)s1 [Ex. 4.120] |
| 162 | 19 | C=C1C[C@@H](c2nc3cc(C(C)(C)C)ccc3[nH]2)N(C(=O)c2cc(C)ccc2-n2cccn2)C1 [Ex. 6.171] |
| 102 | 109 | CSc1cccc2nc([C@@H]3CCCN3C(=O)c3cncnc3-c3cccc(C)c3)[nH]c12 [Ex. 1.88] |
| 12 | 1190 | Cc1ccc(-c2nc(C(=O)N3CCC[C@@]3(C)c3nc4c(C)c(Cl)ccc4[nH]3)c(-c3ccc(F)cc3)s2)c(F)c1 [Ex. 5.253] |
| 103 | 26 | Cc1nc(C(=O)N2CCCC2c2nc3c(C)c(C)ccc3[nH]2)c(-c2ccccc2)s1 (stereo not drawn) [Ex. 1.139] |
| 3 | 108 | Cc1ccc(C(=O)N2CC[C@H](C)[C@H]2c2nc3cc(Cl)c(C)cc3[nH]2)c(-c2ccccn2)c1 [Ex. 4.109] |
| 2190 | 99 | CSc1ccc2[nH]c([C@@H]3CCCN3C(=O)c3ccccc3-n3cccn3)nc2c1 [Ex. 1.176] |
| 8 | 113 | Cc1cc2[nH]c([C@@H]3[C@@H](C)CCN3C(=O)c3ccccc3-n3nccn3)nc2cc1Cl [Ex. 4.76] |
| 24 | 3680 | Cc1nc(C(=O)N2CC[C@H](C)[C@H]2c2nc3cc(C(F)(F)F)ccc3[nH]2)c(-c2ccc(F)c(F)c2)s1 [Ex. 4.143] |
| 7 | 419 | Cc1cc2[nH]c([C@@H]3[C@@H](C)CCN3C(=O)c3cc(C#N)ccc3-c3ccccc3)nc2cc1Cl [Ex. 4.108] |
| 191 | 364 | Cc1nc(C(=O)N2CCCC2c2nc3c(C(F)(F)F)cc(C(F)(F)F)cc3[nH]2)c(-c2ccccc2)s1 (stereo not drawn) [Ex. 1.118] |
| 364 | 112 | Cc1nc(C(=O)N2CCCC2c2nc3c(CO)cccc3[nH]2)c(-c2cccc(Cl)c2)s1 (stereo not drawn) [Ex. 1.103] |
| 32 | 452 | C[C@@]1(c2nc3cc(Cl)c(C(F)(F)F)cc3[nH]2)CCCN1C(=O)c1nc(-c2ccccc2)sc1-c1ccc(F)cc1 [Ex. 5.285] |
| 17 | 1290 | Cc1ccc(-n2cccn2)c(C(=O)N2CC[C@H](C)[C@H]2c2nc3cc(Cl)c(C)cc3[nH]2)c1 [Ex. 4.73] |
| 117 | 99 | CSc1ccc2nc([C@@H]3CCCN3C(=O)c3nc(C4CC4)sc3-c3ccccc3)[nH]c2c1 [Ex. 1.35] |
| 298 | 37 | C=C1C[C@@H](c2nc3cc(OC)ccc3[nH]2)N(C(=O)c2ccccc2-c2ccc(C)cc2)C1 [Ex. 6.15] |
| 6 | 9 | COc1ccc(-n2nccn2)c(C(=O)N2C[C@H](OC)C[C@H]2c2nc3ccc(Cl)c(C)c3[nH]2)c1F [Ex. 3.11] |
| 156 | 54 | Cc1cc2nc([C@]3(C)CCCN3C(=O)c3cc(F)ccc3-n3nccn3)[nH]c2cc1C [Ex. 5.60] |
| 91 | 283 | COc1ccccc1-c1ccc(C)cc1C(=O)N1CCC[C@@]1(C)c1nc2cc(C(F)(F)F)ccc2[nH]1 [Ex. 5.185] |
| 27 | 6 | C=C1C[C@@H](c2nc3cc(Cl)c(C(F)(F)F)cc3[nH]2)N(C(=O)c2cc(OC)c(OC)cc2-n2nccn2)C1 [Ex. 6.186] |

| Compound | IC50 (human orexin-1 receptor) [nM] | IC50 (human orexin-2 receptor) [nM] |
| --- | --- | --- |
| Cc1ccc(-n2nccn2)c(C(=O)N2CCC[C@@]2(C)c2nc3c(C)c(C)ccc3[nH]2)c1 [Ex. 5.28] | 4 | 19 |
| COc1ccc2[nH]c([C@]3(C)CCCN3C(=O)c3cc(C)ccc3-n3nccn3)nc2c1 [Ex. 5.32] | 90 | 46 |
